According to patent US9205135B2, “Podocyte pH modulation and uses thereof” (University of Miami, priority 2009, dated 2015):

Columns and labels:
podocytes [1] = assay: Intracellular pH of podocytes by phosphorus NMR; type: cell-based, mouse; settings: after 24 hours of LPS exposure; 7.0 under normal conditions
Procedure: Another example is using phosphorus NMR spectra for untreated and LPS-treated podocytes. Briefly, podocytes are cultured and treated with LPS. 8×10^7 to 1×10^8 cells are harvested and cultured in phosphate-free medium prior to assay. Phosphorous NMR spectra are acquired and analyzed using an iNMR software package. Intracellular pH (pHi) is calculated from the chemical shift difference (d) between the intracellular inorganic phosphate peak (Pi) and the primary phosphate of nucleoside phosphates (Pa) using equation 1.
Measurement of intracellular pH by NMR: Eighty to hundred million podocyte cells were harvested and resuspended in 2-2.5 mL of phosphate-free RPMI medium (MP Biomedicals, Solon, Ohio) with 2.0 mM glutamine (Invitrogen) prior to assay. Phosphorous NMR spectra were acquired on a 14 Tesla Bruker Avance NMR spectrometer (Bruker BioSpin, Billerica, Mass.) with a 10 mm broadband observe (BBO) NMR probe. Cell suspensions were placed in 10 mm (OD) glass NMR tubes (Wilmad LabGlass, Buena, N.J.). Samples were maintained at a temperature of 37° C. […] Spectra were analyzed using the iNMR software package (Mestrelab Research, Spain). Intracellular pH (pHi) was calculated from the chemical shift difference (d) between the intracellular inorganic phosphate peak (Pi) and the primary phosphate of nucleoside phosphates (Pa) using Eq. 1: […]

NIH 3T3 = assay: Glutamine uptake rate in NIH 3T3 cells; type: cell-based
Procedure: (§1) All together, these experiments discovered a uniform metabolic response for podocytes that are injured.
(§2) Cells, antibodies, and standard techniques: Mouse podocyte cell lines (15) and HEK 293 cells (6) were grown as described previously. NIH 3T3 cells were cultured in Dulbecco's modified Eagle's minimal essential medium (Invitrogen, Carlsbad, Calif.) supplemented with 10% fetal calf serum (Invitrogen) and incubated in a humidified atmosphere of 95% air and 5% CO2 at 37° C. Antibody used for immunostaining are Alexa Fluor 594 phalloidin (Molecular Probes, Eugene, Oreg.). Subcellular fractionation was performed as described previously (6).

podocytes [2] = assay: Glutamine uptake rate in cultured podocytes; type: cell-based, mouse; settings: injury stimulus
Description: A podocyte metabolic model was constructed based on available databases as well as mRNA and protein expression data extracted from podocytes. The following podocyte culture models were employed: wildtype (control), LPS and PAN stimulated podocytes (inducible injury models) as well as podocytes with genetic deletion of the alpha3 gene (genetic disease model). All injury cultures increase the uptake of glutamine as well as gluconeogenic aminoacids. In addition, there is increasing ammonia production in diseased podocytes. These changes were predicted by the podocyte metabolic model and confirmed by measuring directly amino acids and ammonia (FIGS. 1A-1D).
Metabolic Flux Analysis emphasizes glutamine utilization pathways for podocyte function: We utilized cultured normal podocytes (control) (15) and three in vitro models for podocyte damage: i) podocytes with α3 integrin deletion (genetic model) (16); ii) podocytes treated with lipopolysaccharides (LPS, immunological model) (17); and iii) podocytes treated with puromycin aminonucleoside (PAN, toxic model) (18). […] Using the podocyte MFA network, we were able to extract podocyte aminoacid and glucose utilization (FIG. 10b-d) that was also independently measured in direct validation studies (data not shown). All analyzed modeling and experimentation data supported the notion that the aminoacid metabolism of podocytes is changed in disease. […]

SNAT3 [3] = assay: RT-PCR expression of SNAT glutamine transporters in mouse glomeruli; type: in vivo; settings: glomeruli of mice stimulated with LPS
Description: Podocytes induce expression of SNAT glutamine transporters during injury: Having identified increased glutamine uptake and utilization as a signature for diseased podocytes that varies from other non-differentiated eukaryotic cells (FIG. 7), we studied the expression of the expression of system A (SNAT1, 2, 4) and system N(SNAT3, 5, 6) family members of sodium-coupled neutral amino acid transporters in cultured podocytes (FIG. 2a). Glutamine is known to be a favored substrate throughout the family, except for SNAT4 (21). We also studied these transporters in isolated mouse glomeruli (FIG. 2a). All SNATs were expressed besides SNAT5, 3 and 4 were only found at low levels. […] SNAT3, formerly known as SN1 (Slc38a3), is known as an antiporter that function in the presence of Na+ and takes up glutamine for the exchange of H+. It is highly expressed on the mRNA and protein level in the kidney during metabolic acidosis and involved in the regulation of acid-base homeostasis (22-24).
(§3) RT-PCR: We isolated total RNA from murine cultured podocytes and mouse glomeruli using the Trizol reagent (Invitrogen) according to the manufacturer's instructions. cDNA synthesis was performed with SuperScript II Reverse Transcriptase (Invitrogen) using Oligo(dT)12-18 oligonucleotide primers according to the manufacturer's instructions. All samples were run in duplicates.

HEK293 = assay: Glutamine uptake rate in HEK293 cells; type: cell-based
Procedure: as §1, §2

cathepsin L = assay: Cathepsin L activity in cultured podocytes, CV-(FR)2 substrate; type: cell-based, mouse; settings: effect of the injury stimulus itself
Procedure: Subcellular sites of cathepsin L and cathepsin B activity in glomerular extracts were visualized by a fluorogenic substrate, CV-(FR)2, which emits light upon cleavage by cathepsin L or cathepsin B (Biomol).
Measurement of cathepsin L activity: Cathepsin L activities in cultured podocytes and in glomeruli was measured using CV-CatL detection kit (Biomol, Plymouth Meeting, Pa.) as described in the manufacturer's instructions. The fluorophore cresyl violet [CV-(FR)2] substrate becomes florescent after Cat L cleavage of the attached Phe-Arg groups. This substrate easily penetrates the cell membrane and the membranes of the internal cellular organelles, enabling the detection of cathepsin activity within living podocytes.

SNAT3 [4] = assay: RT-PCR expression of SNAT glutamine transporters in cultured podocytes; type: cell-based, mouse
Procedure: In brief, total RNA from cultured mouse podocytes was isolated with RNA isolation kit (Qiagen, Germantown, Md.) and the amount of RNA was measured by spectrophotometry. Purified RNA was reverse transcribed and PCR performed using PCR Mastercycler (Eppendorf, Westbury, N.Y.).
as §3

## lipopolysaccharides [LPS]
Podocytes [1]
  podocyte cytosolic pH (NMR): 6.9
NIH 3T3
  glutamine uptake rate: did not respond
Podocytes [2]
  glutamine uptake rate: stimulated
SNAT3 [3]
  SNAT3 mRNA expression: increased markedly
HEK293
  glutamine uptake rate: did not respond
Cathepsin L
  cathepsin L activity in podocytes: stimulate
SNAT3 [4]
  SNAT3 mRNA expression: prominent induction
